In US5837548A, “Treatment of inflammation by inhibition of lipid body formation” (Beth Israel Hospital, priority 1995, dated 1998):

Experiments:
Format in all cases: cell-based
human neutrophils = experiment: cis-unsaturated fatty acid-induced lipid body formation in human neutrophils (osmium staining, light microscopy enumeration); details: human neutrophils
Method: Neutrophils were purified from fresh human blood obtained by venipuncture from healthy adult volunteers and collected into acidified citrate. After addition of 6% dextran 70 (McGaw, Irvine, Calif.), RBCs were allowed to sediment for 1 hour at room temperature. The leukocyte-rich supernatant was overlaid onto an equal volume of Ficoll-Paque gradient (Piscataway, N.J.), and centrifuged at 400×g for 20 min. […] Residual RBCs were lysed with hypotonic saline.
Human leukocytes (10^6 cells/mL) were incubated with varying concentrations of arachidonic acid (AA), oleic acid (OA) or vehicle at 37° C. in a 5% CO2 /95% O2 atmosphere, and after 1 hour leukocytes (10^5 cells per slide) were cytocentrifuged (550 rpm, 5 min) onto glass slides. During inhibitory studies, neutrophils were pretreated for 1 hour with varying concentrations of enzyme inhibitors, protein synthesis inhibitors, or vehicle as indicated. When PKC inhibitors were used, the pre-incubation time was reduced to 30 minutes to avoid toxic effects to the cells. […] Stock solutions for A23187, D609, U-73122, and indomethacin were prepared in DMSO and stored at -20° C. Aliquots were diluted in Ca^++ /Mg^++ fee HBSS to the indicated concentration immediately prior to use. […] The morphology of fixed cells was observed, and lipid bodies were enumerated with phase contrast microscopy and a 100× objective lens in 50 consecutively scanned leukocytes.
(§1) Results were expressed as mean±SEM and were analyzed statistically by means of the analysis of variance followed by the Newman-Keuls-Student test with the level of significance set at p<0.05. Correlation coefficients were determined by linear regression, and correlation analysis was performed by Fisher's r to z transformation with the level of significance set at p<0.05.
^1 Neutrophils (10^6 /ml) were pretreated with protein kinase C
(actinomycin D, cycloheximide) for 30 min or with phospholipase C
inhibitors (D609, U73122) for 1 h. The cells were then stimulated with
vehicle, arachidonic acid (15 μM), or oleic acid (10 μM), for 1 h.
Results are mean ± SEM from fifty consecutively counted neutrophils.
Statistically significant differences between the agonist alone and the
inhibitor are represented by an asterisk(*). Percent inhibition has been
calculated after subtracting out the basal number of lipid bodies/PMN
present prior to stimulation.
^1 Neutrophils (10^6 /ml) were pretreated with the NSAID or
vehicle for 1 h then stimulated with vehicle, arachidonic acid, or oleic
± SEM from fifty consecutively counted neutrophils. Statistically
significant differences between the agonist alone and the NSAID are
represented by an asterisk (*). Percent inhibition has been calculated
after subtracting out the basal number of lipid bodies/PMN present prior

human eosinophils = experiment: cis-unsaturated fatty acid-induced lipid body formation in human eosinophils
Method: Vehicle alone is represented by the dark columns. AA and OA are represented by the striped and gray columns, respectively. Agonist plus the pretreatment with aspirin is represented by the cross-hatched columns. Cells (10^6 /mL) were pretreated with aspirin (10 μg/mL) or vehicle for one hour and then stimulated arachidonic acid (15 μM), oleic acid (10 μM) or vehicle for one hour. Lipid bodies were enumerated by light microscopy following osmium staining. Each point represents the mean±SEM from fifty consecutively counted cells. The statistically significant difference between the vehicle alone and the agonist is represented by a cross. Statistically significant differences due to pretreatment with aspirin are indicated by an asterisk.
Neutrophils were purified from fresh human blood obtained by venipuncture from healthy adult volunteers and collected into acidified citrate. After addition of 6% dextran 70 (McGaw, Irvine, Calif.), RBCs were allowed to sediment for 1 hour at room temperature. The leukocyte-rich supernatant was overlaid onto an equal volume of Ficoll-Paque gradient (Piscataway, N.J.), and centrifuged at 400×g for 20 min. PMNs (>95% pure, rest being eosinophils) were recovered from the pellet and washed in Ca^++ /Mg^++ free HBSS. Residual RBCs were lysed with hypotonic saline. Eosinophils (80% pure, the rest being neutrophils) were obtained from a donor with idiopathic hypereosinophilic syndrome using the same procedure as described above.
Human leukocytes (10^6 cells/mL) were incubated with varying concentrations of arachidonic acid (AA), oleic acid (OA) or vehicle at 37° C. in a 5% CO2 /95% O2 atmosphere, and after 1 hour leukocytes (10^5 cells per slide) were cytocentrifuged (550 rpm, 5 min) onto glass slides. During inhibitory studies, neutrophils were pretreated for 1 hour with varying concentrations of enzyme inhibitors, protein synthesis inhibitors, or vehicle as indicated. When PKC inhibitors were used, the pre-incubation time was reduced to 30 minutes to avoid toxic effects to the cells. The cell viability, determined by trypan blue dye exclusion at the end of each experiment, was always greater than 90%. Stock solutions for A23187, D609, U-73122, and indomethacin were prepared in DMSO and stored at -20° C. Aliquots were diluted in Ca^++ /Mg^++ fee HBSS to the indicated concentration immediately prior to use. […]
as §1

[1] = test system: human neutrophils (LTB4 production); experiment: LTB4 production by human neutrophils (priming, A23187 stimulation, ELISA)
Method: FIG. 1A is a graph illustrating the effect of arachidonic acid (AA) and oleic acid (OA) on induction of lipid body formation (black) and priming effects (white) for enhanced leukotriene B4 (LTB4) by human neutrophils. Neutrophils (10^6 /mL) were stimulated for one hour with arachidonic acid (3.7, 7.5, 15 μM) or oleic acid (2.5, 5, 10 μM). Lipid bodies were enumerated using light microscopy following osmium staining. The concentration of LTB4 in the supernatant was measured by ELISA after incubation with A23187 (0.5 μM) for 15 minutes at 37° C. Data are expressed as mean from 2-3 independent assays performed in duplicate.
FIG. 5A is a graph showing that aspirin inhibits cis-unsaturated fatty acid-induced priming for enhanced leukotriene B4 (LTB4) production in human neutrophils. Striped and open columns represent vehicle treated cells and aspirin treated cells, respectively. Cells (10^6 /mL) were pretreated with aspirin (10 μg/mL) or vehicle for one hour and then stimulated with OA (10 μM) or vehicle for one hour. The concentration of LTB4 in the supernatant was measured by ELISA after incubation with A23187 (0.5 μM) for 15 minutes at 37° C. Data are expressed as mean from 2-4 independent assays performed in duplicate. The statistically significant difference between the vehicle alone and the agonist is represented by a cross. Statistically significant differences due to pretreatment with aspirin are indicated by an asterisk.
After the incubation time, a sample was taken for lipid body enumeration and the cells were washed in Ca^++ /Mg^++ free HBSS. Leukocytes were resuspended in 1 mL of HBSS containing Ca^++ /Mg^++ and then stimulated with A23187 (0.5 μM) for 15 min. The reaction was stopped on ice, and the samples were centrifuged at 1500 rpm for 10 min at 4° C. The concentrations of PGE2, LTB4, and LTC4 in the supernatants were assayed by ELISA according to the manufacturer's instructions (Cayman, Ann Arbor, Mich.).

[2] = Homo sapiens, Neutrophil, 1 h, read-out: fold increase in production of LTB4
[3] = staurosporine 0.1-1.0 μM, aspirin 10 μg/mL, others as in Tables 1 and 2

| Compound | increase in number of lipid bodies (human neutrophils) | increase in number of lipid bodies (human eosinophils) | fold induction at 15 µM [1, 2] | increase in production of LTB4 ([1]; neutrophils) | inhibition of arachidonic acid-induced lipid body formation (human neutrophils; [3]) | inhibition of oleic acid-induced lipid body formation (human neutrophils; [3]) | inhibition of arachidonic acid-induced lipid body formation (human eosinophils; 10 μg/mL) | inhibition of oleic acid-induced lipid body formation (human eosinophils; 10 μg/mL) | inhibition of calcium ionophore-induced LTB4 production ([1]; cells not pre-stimulated with cis-unsaturated fatty acids) | inhibition of oleic acid-induced priming for enhanced LTB4 production ([1]; neutrophils, 10 μg/mL, OA 10 μM) | fold induction at 10 µM [1, 2] | correlation (r) between number of lipid bodies and priming for enhanced LTB4 release ([1]; oleic acid, leukocytes, p<0.05) |
| --- | --- | --- | --- | --- | --- | --- | --- | --- | --- | --- | --- | --- |
| CCCCC/C=C\C/C=C\C/C=C\C/C=C\CCCC(=O)O [arachidonic acid] | dose-dependent increase in the number of lipid bodies | dose-dependent increase in the number of lipid bodies | 2.3 | dose-dependent increase in production | – | – | – | – | – | – | – | – |
| CC(=O)Oc1ccccc1C(=O)O [aspirin] | – | – | – | – | significantly inhibited | significantly inhibited | significantly inhibited | significantly inhibited | failed to inhibit | significantly inhibited | – | – |
| CCCCCCCC/C=C\CCCCCCCC(=O)O [oleic acid] | dose-dependent increase in the number of lipid bodies | dose-dependent increase in the number of lipid bodies | – | dose-dependent increase in production | – | – | – | – | – | – | 2 | 0.96 |
